# Source: US9663800B2, “Alkane exporter and its use” (Nanyang Technological University, priority 2012, dated 2017)
# Assays:
# S. cerevisiae BY4741 = experiment: Alkane susceptibility test in liquid culture; assay type: cell-based, Saccharomyces cerevisiae; details: control cells with empty plasmid, 48 hr, 28° C.
# Procedure: FIG. 2. Alkane susceptibility test for S. cerevisiae. The alkane susceptibility was tested in cells expressing ABC2/3 or with empty plasmid. (A) Alkane susceptibility test on agar plate. Serial dilutions of cells expressing ABC2/3 were spotted on agar plates with alkanes (decane, undecane) as vapour phase. Plates were incubated at 28° C. for 2 days. (B) Alkane susceptibility test in liquid culture. Overnight cell culture was diluted into induction medium (final OD600=0.4) with different alkanes (decane & undecane) concentrations. The plates were incubated for 48 hr at 28° C. The OD600 value of each sample was determined and plotted against its corresponding alkane concentration. Symbols for strains are: control sample with empty plasmid (open circle), cells expressing ABC2 (filled circle), cell expressing ABC3 (filled triangle).
# Overnight culture was diluted into 5 ml induction medium in 50 ml glass bottle (Sigma) at an initial OD600 of 0.4. Alkanes were added as different final concentration. Bottles were sealed tightly with butyl rubber stopper (Sigma) and silver aluminum seal (Sigma). Liquid culture was performed at 28° C. with shaking. Growth was monitored by measuring the OD600 at different time point. Cell culture used for time point OD checking was collected from the glass bottle using needle and syringe.
# To further analyze the effect of ABC2 and ABC3 toward decane and undecane, alkane susceptibility tests in liquid culture were conducted. […] With the expression of ABC2, decane tolerance was boosted about 80-fold (20% vs. 0.25% decane) and cells can survive in 20% undecane. For ABC3, decane tolerance is increased slightly by about 3-fold (0.75% vs. 0.25% decane) and cells are resistant to 20% undecane. It is apparent that the expression of ABC2 and ABC3 transporters improved the tolerance toward C10 and C11 alkanes.
# ABC2 mRNA = experiment: Quantitative RT-PCR of ABC2 transcripts after alkane treatment; assay type: cell-based; details: Y. lipolytica CLIB122, 24 h alkane treated vs. untreated, normalized to actin, p<0.05
# Source text: (§1) FIG. 3. mRNA transcripts levels of ABC2 and ABC3 in Y. lipolytica. Quantitative RT-PCR analysis of ABC2 (A) and ABC3 (B) in Y. lipolytica cells corresponding to treatment with octane, nonane, decane, undecane and dodecane (C8-C12). Each value of qRT-PCR was normalized to β-actin expression levels and expressed as the fold change relative to the levels detected in control samples, which were cells without alkane treatment and set equal to 1. Error bars represent the SD of triplicate.
# (§2) To assess whether ABC1, ABC2, ABC3 and ABC4 are involved in alkane transport in Y. lipolytica, we analysed the effects of alkanes with different chain length (C8-C12) on the transcription levels of these four ABC transporter genes using quantitative RT-PCR.
# (§3) Total RNA samples from 24 h alkane treated and untreated Y. lipolytica CLIB122 cells were prepared using RNeasy Mini Kit (Qiagen), followed by cDNA synthesis using H minus Reverse transcriptase kit (Fermentas). Quantitative RT-PCR analysis was performed on a Bio-Rad iQ5 real-time PCR detection system using SsoFast EvaGreen Supermix kit (Bio-Rad). The actin gene (YALI0D08272g) was used as reference gene for Y. lipolytica. Relative mRNA levels were derived using comparative CT method.
# ABC3 mRNA = experiment: Quantitative RT-PCR of ABC3 transcripts after alkane treatment; assay type: cell-based; details: Y. lipolytica CLIB122, 24 h alkane treated vs. untreated, normalized to actin, p<0.05
# Source text: as §1, §2, §3
smiles,measurement,setting,value
CCCCCCCCCC [decane],alkane concentration causing a significant decrease in viability of the control cells,S. cerevisiae BY4741,0.5%
same,mRNA levels of ABC2,ABC2 mRNA,significantly increased
same,mRNA levels of ABC3,ABC3 mRNA,significantly increased
